Target: tau (Homo sapiens, UniProt P10636)
Assay: MCE Phenols Library screening, tau biosensor cell seeding assay (AvZ)
Format: cell-based
Conditions: for AvZ (average z score of seeding, SDs from the mean level of seeding): 10 μM phenol in cell cultures, AD brain homogenate preincubated 16 hours, two biological replicates, positive = catalyzes seeding, negative = inhibits; for Z repl 1 / Z Repl 2: Z score; for Z repl 1 / raw data 1: replicate 1; for Z Repl 2 / raw data 2: replicate 2
[1] = average Z score of the two replicates, tau seeding
[2] = average puncta of the two replicates
[3] = average Z score of the two replicates, MCE Phenols Library screen
[4] = average Z score of the two replicates, tau biosensor seeding, MCE Phenols Library screen

Chain of tau (P10636 623-695 limits assumed): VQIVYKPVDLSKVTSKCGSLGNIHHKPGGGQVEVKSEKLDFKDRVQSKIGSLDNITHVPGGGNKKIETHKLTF

Row | SMILES | AvZ (average z score of seeding, SDs from the mean level of seeding) | Z repl 1 | Z Repl 2 | av puncta (average of raw data 1 and 2) | raw data 1 (puncta) | raw data 2 (puncta) | av Z [1] | av puncta [2] | raw data 1 (raw puncta) | raw data 2 (raw puncta) | av Z [3] | av Z [4] | av Z (average Z score of two replicates, Phenols Library screen)
1 | Cc1ccc(C(C)C)cc1O [Carvacrol] | 0.979 | 0.54 | 1.419 | 30376.1 | 32834.5 | 27917.7 |  |  |  |  |  |  | 
2 | COc1cc(-c2cc(=O)c3c(O)cc(O)cc3o2)ccc1O [Chrysoeriol] |  | 0.623 | -0.203 | 22210.2 | 33824.2 | 10596.2 | 0.21 |  |  |  |  |  | 
3 | COc1cc(C=O)cc(OC)c1O [Syringaldehyde] | -0.318 | 0.142 | -0.778 |  |  |  |  | 16255.1 | 28055.2 | 4454.92 |  |  | 
4 | O=C(O)C[C@H](C(=O)O)[C@H]1c2c(cc(O)c(O)c2O)C(=O)O[C@@H]1C(=O)O [Chebulic acid] |  | -1.01 |  | 7230.09 | 14229.4 | 230.797 |  |  |  |  | -1.092 |  | 
5 | O=C(O)c1ccc(O)c(O)c1 [Protocatechuic acid] | -0.565 | -0.928 | -0.202 |  | 15212.3 | 10612.8 |  | 12912.5 |  |  |  |  | 
6 | C[C@@H]1O[C@@H](Oc2cc(O)c3c(=O)c(O[C@@H]4O[C@@H](C)[C@H](O)[C@@H](O)[C@H]4O)c(-c4ccc(O)cc4)oc3c2)[C@H](O)[C@H](O)[C@H]1O [Kaempferitrin] |  | -1.403 | -0.446 | 8757.09 | 9507.36 | 8006.82 |  |  |  |  | -0.924 |  | 
7 | COc1ccc2c(c1)OC[C@@H](c1cc(O)c(OC)c(OC)c1O)C2 [Colutehydroquinone] |  | 0.366 | 0.999 | 27089.5 | 30747.2 | 23431.8 | 0.683 |  |  |  |  |  | 
8 | O=C1c2c(O)cccc2C([C@@H]2O[C@H](CO)[C@@H](O)[C@H](O)[C@H]2O)c2cc(CO)cc(O)c21 (some centres unmarked) [Aloin(mixture of A&B)] |  | -0.336 | -0.332 |  |  |  |  | 15768.9 | 22314.5 | 9223.26 | -0.334 |  | 
9 | O=C(O)c1cccc(O)c1O [Pyrocatechuic acid] | -0.338 | -0.028 | -0.648 |  |  |  |  | 15926.2 | 26009.1 | 5843.4 |  |  | 
10 | COc1ccc(-c2coc3cc(O)c(OC)c(O)c3c2=O)cc1 [Irisolidone] |  | 0.554 | 1.188 | 29224.4 | 32994.7 | 25454.1 |  |  |  |  |  | 0.871 | 
11 | Nc1ccc(O)c(C(=O)O)c1 [5-Aminosalicylic Acid, reference compound] | -0.176 | -0.552 | 0.2 | 17310.9 | 19721.7 | 14900.2 |  |  |  |  |  |  | 
12 | O=c1cc(-c2ccccc2)oc2cccc(O)c12 [5-Hydroxyflavone] |  | -1.378 | -0.72 | 7440.82 | 9800.36 | 5081.28 |  |  |  |  | -1.049 |  | 
13 | O=C(O[C@H]1[C@H](Oc2c(-c3ccc(O)c(O)c3)oc3cc(O)cc(O)c3c2=O)O[C@H](CO)[C@H](O)[C@@H]1O)c1cc(O)c(O)c(O)c1 [2""-O-Galloylhyperin] |  | -0.93 | -0.817 | 9615.07 | 15187.3 | 4042.85 |  |  |  |  | -0.873 |  | 
14 | O=Cc1ccc(O)c(O)c1 [Protocatechualdehyde] | -0.588 | -0.894 | -0.283 |  | 15614.9 | 9745.34 |  | 12680.1 |  |  |  |  | 
15 | COc1c2ccoc2c(O)c2oc(=O)ccc12 [8-Hydroxybergapten] |  | -0.103 | 0.252 | 20281.2 | 25106.7 | 15455.8 |  |  |  |  |  |  | 0.074
16 | O=C(/C=C/c1ccc(O)cc1)NCCc1c[nH]c2ccc(O)cc12 [N-(p-Coumaroyl) Serotonin] | -0.185 | 0.332 | -0.702 | 17799.1 | 30331 | 5267.16 |  |  |  |  |  |  | 
17 | COc1ccc(-c2coc3cc(O[C@@H]4O[C@H](CO)[C@@H](O)[C@H](O)[C@H]4O)ccc3c2=O)cc1O [Calycosin-7-O-?-D-glucoside] |  | 0.722 | 1.127 | 29908.6 | 35020 | 24797.2 |  |  |  |  |  | 0.924 | 
18 | O=C1c2c(O)cccc2C([C@@H]2O[C@H](CO)[C@@H](O)[C@H](O)[C@H]2O)c2cc(CO)cc(O)c21 (some centres unmarked) [Aloin] |  | 0.178 | 0.236 | 21886.9 | 28489.7 | 15284.2 | 0.207 |  |  |  |  |  | 
19 | CC[C@H]1CN2CCc3cc(OC)c(OC)cc3[C@@H]2C[C@@H]1C[C@H]1NCCc2cc(O)c(OC)cc21.Cl.Cl [Cephaeline (dihydrochloride)] |  | -0.202 | -0.66 |  |  |  |  | 14823.1 | 23925.6 | 5720.59 | -0.431 |  | 
20 | Oc1cc(O)c2ccc(-c3ccc(O)c(O)c3)[o+]c2c1.[Cl-] [Luteolinidin (chloride)] |  | -0.952 | -1.154 | 7678.85 | 14921.6 | 436.094 |  |  |  |  | -1.053 |  | 
21 | COC1=C[C@@H]2[C@@H]3Cc4ccc(OC)c(O)c4[C@]2(CCN3C)CC1=O.Cl [Sinomenine hydrochloride] |  | -0.595 | 0.066 |  |  |  |  | 16340.1 | 19209.2 | 13470.9 | -0.264 |  | 
22 | COC(=O)c1c2c(c3ccccc3c1O)OC(C)(C)C=C2 [Mollugin] |  | 0.972 | 0.582 | 28499.6 | 38015.5 | 18983.8 |  |  |  |  |  | 0.777 | 
23 | Oc1cc(O)c2c(c1)O[C@@]1(c3ccc(O)c(O)c3)Oc3cc(O)c4c(c3[C@@H]2[C@H]1O)O[C@H](c1ccc(O)c(O)c1)[C@H](O)C4 [Procyanidin A2] |  | -0.531 | -0.919 |  | 19975.5 | 2954.48 |  | 11465 |  |  | -0.725 |  | 
24 | O=C(O)[C@H](O)Cc1ccc(O)c(O)c1 [Danshensu] | -0.723 | -0.37 | -1.076 |  | 21904.2 | 1269.24 |  | 11586.7 |  |  |  |  | 

Source: PMC11784839, “Monoaminergic neurotransmitters are bimodal effectors of tau aggregation” (Science Advances, 2025)
